Measured values taken from ChEMBL document CHEMBL3045962, “Synthesis and antitumor evaluation of some novel pyrrolizine derivatives” (Med Chem Res, 2012).

tested on: MCF7; assay: Cytotoxicity against Homo sapiens (human) MCF7 cells after 48 hr by neutral red assay; type: functional, cell-based

Row | SMILES | IC50
1 | CCNC(=S)NC1C(C#N)=C2CCCN2C1(O)N1CCOCC1 (stereo not drawn) | 37 µM
2 | COc1ccc(/C=N/C2C(C#N)=C3CCCN3C2(O)N2CCOCC2)cc1 (stereo not drawn) | 16 µM
3 | CC(=O)C1=C(N)C2=C3CCCN3C(O)(N3CCOCC3)C2N=C1C (stereo not drawn) | 38 µM
4 | O=C1NC(c2ccccc2)=NC2C1=C1CCCN1C2(O)N1CCOCC1 (stereo not drawn) | 16 µM
5 | N#CC1=C2CCCN2C(O)(N2CCOCC2)C1N1C(=O)CSC1c1ccc([N+](=O)[O-])cc1 (stereo not drawn) | 55 µM
6 | N=C1C2=C3CCCN3C(O)(N3CCOCC3)C2NC(=O)N1c1ccccc1 (stereo not drawn) | 18 µM
7 | N#CC1=C2CCCN2C(O)(N2CCOCC2)C1NC(=O)CCl (stereo not drawn) | 23 µM
8 | CC1=NC2C(=C3CCCN3C2(O)N2CCOCC2)C(=O)N1 (stereo not drawn) | 36 µM
9 | NC1=NC=NC2C1=C1CCCN1C2(O)N1CCOCC1 (stereo not drawn) | 35 µM
10 | CN(C)c1ccc(C2SCC(=O)N2C2C(C#N)=C3CCCN3C2(O)N2CCOCC2)cc1 (stereo not drawn) | 19 µM
11 | N#CC1=C2CCCN2C(O)(N2CCOCC2)C1NC(=O)c1ccccc1 (stereo not drawn) | 34 µM
12 | CCOC=NC1C(C#N)=C2CCCN2C1(O)N1CCOCC1 (stereo not drawn) | 41 µM
13 | N#CC1=C2CCCN2C(O)(N2CCOCC2)C1/N=C/N (stereo not drawn) | 26 µM
14 | N#CC1=C2CCCN2C(O)(N2CCOCC2)C1/N=C/NNC(=O)c1ccccc1 (stereo not drawn) | 18 µM
15 | N#CC1=C2CCCN2C(O)(N2CCOCC2)C1/N=C/NNC(=O)c1ccncc1 (stereo not drawn) | 29 µM
16 | COc1ccc(C2SCC(=O)N2C2C(C#N)=C3CCCN3C2(O)N2CCOCC2)cc1 (stereo not drawn) | 35 µM
17 | N#CC1=C2CCCN2C(O)(N2CCOCC2)C1/N=C/c1ccc(Cl)cc1 (stereo not drawn) | 45 µM
18 | O=C(NC1=NC=NC2C1=C1CCCN1C2(O)N1CCOCC1)c1ccccc1 (stereo not drawn) | 21 µM
19 | O=C1NC=NC2C1=C1CCCN1C2(O)N1CCOCC1 (stereo not drawn) | 30 µM

Row | SMILES | IC50
20 | CC(=O)C/C(C)=N/C1C(C#N)=C2CCCN2C1(O)N1CCOCC1 (stereo not drawn) | 42 µM
21 | CCOC(=O)NC1=NC=NC2C1=C1CCCN1C2(O)N1CCOCC1 (stereo not drawn) | 25 µM
22 | N#CC1=C2CCCN2C(O)(N2CCOCC2)C1NC(=O)Nc1ccccc1 (stereo not drawn) | 44 µM
23 | CC(=O)CC(=O)NC1C(C#N)=C2CCCN2C1(O)N1CCOCC1 (stereo not drawn) | 22 µM
24 | O=C1NC(NNC(=O)c2ccccc2)=NC2C1=C1CCCN1C2(O)N1CCOCC1 (stereo not drawn) | 19 µM
25 | O=C(CCl)NC1=NC=NC2C1=C1CCCN1C2(O)N1CCOCC1 (stereo not drawn) | 23 µM
26 | C/C(CC(=O)c1ccccc1)=N\C1C(C#N)=C2CCCN2C1(O)N1CCOCC1 (stereo not drawn) | 28 µM
27 | N#CC1=C2CCCN2C(O)(N2CCOCC2)C1N (stereo not drawn) | 35 µM
28 | O=C1NC(NNC(=O)c2ccncc2)=NC2C1=C1CCCN1C2(O)N1CCOCC1 (stereo not drawn) | 20 µM
29 | COc1cccc2c1C(=O)c1c(O)c3c(c(O)c1C2=O)C[C@@](O)(C(=O)CO)C[C@@H]3O[C@H]1C[C@H](N)[C@H](O)[C@H](C)O1 [DOXORUBICIN] | 63 µM
30 | CC(=O)C1=C(N)C2=C3CCCN3C(O)(N3CCOCC3)C2NC1=O (stereo not drawn) | 29 µM
31 | N#CC1=C2CCCN2C(O)(N2CCOCC2)C1/N=C/c1ccc([N+](=O)[O-])cc1 (stereo not drawn) | 19 µM
32 | CC(=O)NC1C(C#N)=C2CCCN2C1(O)N1CCOCC1 (stereo not drawn) | 29 µM
33 | N=C1C2=C3CCCN3C(O)(N3CCOCC3)C2NC(=O)N1c1ccc(Cl)cc1 (stereo not drawn) | 37 µM
34 | CCOC(=O)NC1C(C#N)=C2CCCN2C1(O)N1CCOCC1 (stereo not drawn) | 27 µM
35 | N#CC1=C2CCCN2C(O)(N2CCOCC2)C1N1C(=O)CSC1c1ccc(Cl)cc1 (stereo not drawn) | 18 µM
36 | CCN1C(=N)C2=C3CCCN3C(O)(N3CCOCC3)C2NC1=S (stereo not drawn) | 34 µM
37 | CC(=O)NC1=NC=NC2C1=C1CCCN1C2(O)N1CCOCC1 (stereo not drawn) | 29 µM
38 | CN(C)c1ccc(/C=N/C2C(C#N)=C3CCCN3C2(O)N2CCOCC2)cc1 (stereo not drawn) | 37 µM
